Test results taken from patent publication US20130274216A1 (priority 2012, published 2013).

Legend:
Aspergillus flavus = format: in vivo, murine
[1] = tested on: Fusarium conidia infected murine cornea; test: In vivo murine fungal keratitis model, neutrophil infiltration of the infected cornea; set-up: species or system C57BL/6 mice; details: for neutrophil infiltration (neutrophils per 5 μm corneal section): 24 hours after infection, infected PBS or vehicle groups >200 neutrophils/section

| Compound | reduction in CFUs/eye (Aspergillus flavus; 72 hours after infection with Aspergillus, dosed qid for 48 hours, control approximately 15000 CFUs/eye, FIG. 3B) | Aspergillus infection evaluated by RFP expression (Aspergillus flavus; fluorescence micrographs of murine corneas 72 hours after infection, FIG. 3A) | neutrophil infiltration (neutrophils per 5 μm corneal section) ([1]; 0.1% w/v test group) | neutrophil infiltration (neutrophils per 5 μm corneal section) ([1]; 1% w/v test group) | neutrophil infiltration, effect in words ([1]; test groups vs infected PBS/vehicle groups, 24 hours, FIG. 2) |
| --- | --- | --- | --- | --- | --- |
| C[C@@H]1C/C=C/C=C/C=C/C=C/[C@H](O[C@@H]2O[C@H](C)[C@@H](O)[C@H](N)[C@@H]2O)C[C@@H]2O[C@](O)(C[C@@H](O)C[C@H]3O[C@@H]3/C=C/C(=O)O1)C[C@H](O)[C@H]2C(=O)O [natamycin] | ~50% | suppressed | – | – | – |
| COc1ccc(Nc2nc(-c3cccs3)nc3cn[nH]c23)cc1OC [Compound 1] | – | – | < 100 neutrophils/section | < 100 neutrophils/section | dose-dependent reduction |
